Measured values as given in patent publication US20240423973A1, “COMPOUNDS, PHARMACEUTICAL COMPOSITIONS, AND METHODS FOR THE TREATMENT, PREVENTION, OR MANAGEMENT OF HYPERPROLIFERATIVE DISORDERS” (VINCERX PHARMA GMBH, priority 2021, published 2024).
*1 amine or outer side, *2 acyl side, *3 side chain or, on linkers, in order; H or OH if unused. Where a SMILES comes first, the peptide text is derived from it. Bridges are numbered along the chain shown (N, C = ends). Roman numbers before positions name the chains, in order. [ ]: non-standard residue; d: D form. The star is where a group is joined. X1 = CCCNC(=O)Nc1cccc(S(=O)(=O)Nc2cccc([C@@H](CC(=O)O)NC(=O)Nc3ccc(N*)cc3)c2)c1; Camptothecin(7-Et) = CCc1c2c(nc3ccccc13)-c1cc3c(c(=O)n1C2)COC(=O)[C@@]3(CC)O*; Glutaryl = O=C(CCCC(=O)[*:2])[*:1]; PEG3 = NCCOCCOCCOCCC(=O)O; CO = O=C([*:1])[*:2]; Sar = CNCC(=O)O

Legend:
[1] = Pharmacokinetics in rat after intravenous administration; format: in vivo; conditions: male rats, intravenous 0.5 mg/kg bolus, plasma, non-compartmental analysis; for Vd: read-out: Vss
Method: Male rats (n=3) were given an intravenous 0.5 mg/kg bolus dose of test article dissolved in plasma with 1% DMSO and 1% ethanol (Ex A3 only). Serial blood samples were collected up to 24 hours post-dose. Plasma was harvested from blood samples and stored frozen until sample analysis. Test article plasma concentrations were analyzed by LC/MS/MS.

[2] = tested on: HT29; test: Cytotoxicity assay (Version 2), automated, AC50; format: cell-based, human; conditions: HT29 cells, Version 2, activity concentration at -50%, 4 parameter Hill-fit
Method: (§1) Cultivation of cells was performed according to standard procedures with the media recommended by the provider. The cells, in a total volume of 100 μL, were seeded in a 96-well plate with a white bottom (#3610). After a 24 h incubation period at 37° C. and 5% CO2, the medium was exchanged by adding 90 μL fresh medium. The treatment started by adding the test compound in 10 μL of culture medium to the cells in triplicates. Concentrations ranging from 10^−5 M to 10^−13 M were chosen. Two identically treated sets of samples were prepared. One set was treated with the test compound alone, whereas to the second set the compound and 10 nM elastase was added followed by a 72 h incubation period at 37° C. and 5% CO2. The proliferation was detected using the MTT assay (ATCC). At the end of the incubation period the MTT reagent was added to all samples for 4h. Lysis of the cells followed by addition of the detergent was done overnight. The formed dye was detected at 570 nm. The proliferation of untreated but otherwise identically handled cells was define as the […].
(§2) The Cytotoxicity assay (Version 2) was performed as above described. Some changes were applied as the assays were performed in an automated fashion and the IC50 values determination was changed. Here the change in metabolic activity of the cells, in percent, was calculated by normalization of the measured values to the absorbance values of medium containing wells without cells (=−100% ) and the absorbance of the DMSO-treated cells (=0% ). AC50 values (activity concentration at -50% o) were determined by means of a 4 parameter Hill-fit using GeneData Screener software.

[3] = tested on: 786-O; test: Cytotoxicity assay (Version 2), automated, AC50; format: cell-based, human; conditions: 786-O cells, Version 2, activity concentration at -50%, 4 parameter Hill-fit
Method: as §1, §2

[4] = tested on: NCI H292; test: Cytotoxicity assay (Version 2), automated, AC50; format: cell-based, human; conditions: NCI H292 cells, Version 2, activity concentration at -50%, 4 parameter Hill-fit
Method: as §1, §2

[5] = tested on: SUM149; test: Cytotoxicity assay (Version 2), automated, AC50; format: cell-based; conditions: SUM149 cells, Version 2, activity concentration at -50%, 4 parameter Hill-fit
Method: as §1, §2

[6] = tested on: HT29; test: Cytotoxicity in vitro in the presence and absence of elastase (MTT assay); format: cell-based, human; conditions: HT29 cells, 72 h
Method: as §1

[7] = tested on: 786-O; test: as above; format: cell-based, human; conditions: 786-O cells, 72 h
Method: as §1

[8] = tested on: NCI H292; test: as above; format: cell-based, human; conditions: NCI H292 cells, 72 h
Method: as §1

[9] = tested on: SUM149; test: as above; format: cell-based; conditions: SUM149 cells, 72 h
Method: as §1

Row | Compound | AUC [1] | clearance [1] | half-life [1] | Vd [1] | IC50 ([6]; compound alone (no elastase)) | IC50 ([6]; with 10 nM elastase) | IC50 ([7]; compound alone (no elastase)) | IC50 ([7]; with 10 nM elastase) | IC50 ([8]; compound alone (no elastase)) | IC50 ([8]; with 10 nM elastase) | IC50 ([9]; compound alone (no elastase)) | IC50 ([9]; with 10 nM elastase) | also measured
1 | CCCNC(=O)Nc1cccc(S(=O)(=O)Nc2cccc([C@@H](CC(=O)O)NC(=O)Nc3ccc(NC(=O)NCCOCCOCCOCCC(=O)NCCCC[C@H](NC(=O)CCOCCOCCOCCNC(=O)Nc4ccc(NC(=O)N[C@H](CC(=O)O)c5cccc(NS(=O)(=O)c6cccc(NC(=O)NCCC)c6)c5)cc4)C(=O)NCCOCCOCCOCCC(=O)N[C@@H](CC(=O)O)C(=O)N4CCC[C@H]4C(=O)N[C@H](C(=O)O[C@]4(CC)C(=O)OCc5c4cc4n(c5=O)Cc5c-4nc4ccccc4c5CC)C(C)C)cc3)c2)c1 [Compound A3] | 50000 to 150000 ng·h/mL | 0.05 to 0.5 mL/min/kg | 10 to 15 h | 0.01 to 0.1 L/kg | – | – | – | – | – | – | – | – | –
2 | CCCNC(=O)Nc1cccc(S(=O)(=O)Nc2cccc([C@@H](CC(=O)O)NC(=O)Nc3ccc(NC(=O)NCCOCCOCCOCCC(=O)NCCNC(=O)CC[C@H](NC(=O)CCCC(=O)NCCN(C)CCN(C)CCN(C)CC(=O)N[C@@H](CC(N)=O)C(=O)N4CCC[C@H]4C(=O)N[C@H](C(=O)O[C@]4(CC)C(=O)OCc5c4cc4n(c5=O)Cc5c-4nc4ccccc4c5CC)C(C)C)C(=O)NCCNC(=O)CCOCCOCCOCCNC(=O)Nc4ccc(NC(=O)N[C@H](CC(=O)O)c5cccc(NS(=O)(=O)c6cccc(NC(=O)NCCC)c6)c5)cc4)cc3)c2)c1 [Compound A9] | – | – | – | – | – | – | – | – | – | – | – | – | AC50 ([2]; no elastase): > 1000 nM; AC50 ([2]; with elastase): 11 to 100 nM; AC50 ([3]; no elastase): 110 to 1000 nM; AC50 ([3]; with elastase): ≤ 10 nM; AC50 ([4]; no elastase): 110 to 1000 nM; AC50 ([4]; with elastase): ≤ 10 nM; AC50 ([5]; no elastase): 110 to 1000 nM; AC50 ([5]; with elastase): ≤ 10 nM
3 | CCCNC(=O)Cc1cccc(S(=O)(=O)Nc2cccc([C@@H](CC(=O)O)NC(=O)Nc3ccc(NC(=O)NCCOCCOCCOCCC(=O)NCCNC(=O)[C@H](CCC(=O)NCCNC(=O)CCOCCOCCOCCNC(=O)Nc4ccc(NC(=O)N[C@H](CC(=O)O)c5cccc(NS(=O)(=O)c6cccc(NC(=O)NCCC)c6)c5)cc4)NC(=O)CCCC(=O)NCCN(C)CCN(C)CCN(C)CC(=O)NCC(=O)N4CCC[C@H]4C(=O)N[C@H](C(=O)O[C@]4(CC)C(=O)OCc5c4cc4n(c5=O)Cc5c-4nc4ccccc4c5CC)C(C)C)cc3)c2)c1 [Compound A11] | – | – | – | – | – | – | – | – | – | – | – | – | AC50 ([2]; no elastase): 110 to 1000 nM; AC50 ([2]; with elastase): 11 to 100 nM; AC50 ([3]; no elastase): 11 to 100 nM; AC50 ([3]; with elastase): ≤ 10 nM; AC50 ([4]; no elastase): ≤ 10 nM; AC50 ([4]; with elastase): ≤ 10 nM; AC50 ([5]; no elastase): ≤ 10 nM; AC50 ([5]; with elastase): ≤ 10 nM
4 | CCCNC(=O)Nc1cccc(S(=O)(=O)Nc2cccc([C@@H](CC(=O)O)NC(=O)Nc3ccc(NC(=O)NCCN(C)CCN(C)CCN(C)CC(=O)N[C@@H](CC(N)=O)C(=O)N4CCC[C@H]4C(=O)N[C@H](C(=O)O[C@]4(CC)C(=O)OCc5c4cc4n(c5=O)Cc5c-4nc4ccccc4c5CC)C(C)C)cc3)c2)c1.Cl.Cl.Cl [Compound B4b, (4S)-4,11-diethyl-3,14-dioxo-3,4,12,14-tetrahydro-1H-pyrano[3′,4′:6,7]indolizino[1,2-b]quinolin-4-yl N^2-{13-[4-({[(1R)-2-carboxy-1-{3-[({3-[(propylcarbamoyl)amino]phenyl}sulfonyl)amino]phenyl}ethyl]carbamoyl}amino)anilino]-3,6,9-trimethyl-13-oxo-12-aza-3,6,9-triazoniatridecan-1-oyl}-L-asparaginyl-L-prolyl-L-valinate trichloride] | 1000 to 10000 ng·h/mL | 0.5 to 5 mL/min/kg | 5 to 10 h | > 0.1 L/kg | 10 to 100 nM | 0.1 to 1 nM | 10 to 100 nM | 0.1 to 1 nM | 10 to 100 nM | 0.1 to 1 nM | 10 to 100 nM | 0.01 to 0.1 nM | –
5 | CCCNC(=O)Nc1cccc(S(=O)(=O)Nc2cccc([C@@H](CC(=O)OCCCN)NC(=O)Nc3ccc(NC(=O)NCCOCCOCCOCCC(=O)N[C@@H](CC(=O)OCCCN)C(=O)N4CCC[C@H]4C(=O)N[C@H](C(=O)O[C@]4(CC)C(=O)OCc5c4cc4n(c5=O)Cc5c-4nc4ccccc4c5CC)C(C)C)cc3)c2)c1 [Compound C8] | – | – | – | – | > 100 nM | 0.1 to 1 nM | 10 to 100 nM | 0.1 to 1 nM | 1.1 to 10 nM | 0.1 to 1 nM | 1.1 to 10 nM | 0.1 to 1 nM | –
6 | CCCNC(=O)Nc1cccc(S(=O)(=O)Nc2cccc([C@@H](CC(=O)OCC[N+](C)(C)C)NC(=O)Nc3ccc(NC(=O)NCCOCCOCCOCCC(=O)N[C@@H](CC(=O)OCC[N+](C)(C)C)C(=O)N4CCC[C@H]4C(=O)N[C@H](C(=O)O[C@]4(CC)C(=O)OCc5c4cc4n(c5=O)Cc5c-4nc4ccccc4c5CC)C(C)C)cc3)c2)c1 [Compound C9] | – | – | – | – | 10 to 100 nM | 0.1 to 1 nM | 10 to 100 nM | 1.1 to 10 nM | 10 to 100 nM | 0.1 to 1 nM | 10 to 100 nM | 0.1 to 1 nM | –
7 | CCCNC(=O)Nc1cccc(S(=O)(=O)Nc2cccc([C@@H](CC(=O)O)NC(=O)Nc3ccc(NC(=O)NCCN(C)CCN(C)CCN(C)CC(=O)NCCN(C)CCN(C)CCN(C)CC(=O)N[C@@H](CC(N)=O)C(=O)N4CCC[C@H]4C(=O)N[C@H](C(=O)O[C@]4(CC)C(=O)OCc5c4cc4n(c5=O)Cc5c-4nc4ccccc4c5CC)C(C)C)cc3)c2)c1 [Compound D1] | – | – | – | – | 10 to 100 nM | 1.1 to 10 nM | 10 to 100 nM | 1.1 to 10 nM | 10 to 100 nM | 1.1 to 10 nM | 10 to 100 nM | 0.1 to 1 nM | –
8 | CCCNC(=O)Nc1cccc(S(=O)(=O)Nc2cccc([C@H](CC(=O)O)NC(=O)Nc3ccc(NC(=O)NCCN(C)CCN(C)CCN(C)CC(=O)NCCN(C)CCN(C)CCN(C)CC(=O)N[C@@H](CC(N)=O)C(=O)N4CCC[C@H]4C(=O)N[C@H](C(=O)O[C@]4(CC)C(=O)OCc5c4cc4n(c5=O)Cc5c-4nc4ccccc4c5CC)C(C)C)cc3)c2)c1 [Compound D2] | – | – | – | – | 10 to 100 nM | 0.1 to 1 nM | 10 to 100 nM | 0.1 to 1 nM | 10 to 100 nM | 0.1 to 1 nM | 1.1 to 10 nM | 0.1 to 1 nM | –
9 | CCCNC(=O)Nc1cccc(S(=O)(=O)Nc2cccc([C@@H](CC(=O)O)NC(=O)Nc3ccc(NC(=O)NCCOCCOCCOCCC(=O)N[C@@H](CCCCNC(=O)CCCC(=O)NCCOCCOCCOCCC(=O)N[C@@H](CC(=O)O)C(=O)N4CCC[C@H]4C(=O)N[C@H](C(=O)O[C@]4(CC)C(=O)OCc5c4cc4n(c5=O)Cc5c-4nc4ccccc4c5CC)C(C)C)C(=O)NCCC(=O)O)cc3)c2)c1 [Compound E1] | 10000 to 50000 ng·h/mL | 0.5 to 5 mL/min/kg | 5 to 10 h | > 0.1 L/kg | – | – | – | – | – | – | – | – | –
10 | CCCNC(=O)Nc1cccc(S(=O)(=O)Nc2cccc([C@@H](CC(=O)O)NC(=O)Nc3ccc(NC(=O)NCCOCCOCCOCCC(=O)N[C@@H](CCCCNC(=O)CCCC(=O)NCCOCCOCCOCCC(=O)N[C@@H](CC(=O)O)C(=O)N4CCC[C@H]4C(=O)N[C@H](C(=O)O[C@]4(CC)C(=O)OCc5c4cc4n(c5=O)Cc5c-4nc4ccccc4c5CC)C(C)C)C(=O)NCCCCCCCC(=O)O)cc3)c2)c1 [Compound E2] | 50000 to 150000 ng·h/mL | 0.5 to 5 mL/min/kg | 5 to 10 h | 0.01 to 0.1 L/kg | – | – | – | – | – | – | – | – | –
11 | CCCNC(=O)Nc1cccc(S(=O)(=O)Nc2cccc([C@@H](CC(=O)O)NC(=O)Nc3ccc(NC(=O)NCCOCCOCCOCCC(=O)N[C@@H](CCCCNC(=O)CCCC(=O)N(C)CC(=O)N(C)CC(=O)N(C)CC(=O)N(C)CC(=O)O)C(=O)NCCOCCOCCOCCC(=O)N[C@@H](CC(=O)O)C(=O)N4CCC[C@H]4C(=O)N[C@H](C(=O)O[C@]4(CC)C(=O)OCc5c4cc4n(c5=O)Cc5c-4nc4ccccc4c5CC)C(C)C)cc3)c2)c1 [Compound E3] (I: {X1-CO-PEG3}-K[PEG3]DPV-{Camptothecin(7-Et)} / II: [Sar][Sar][Sar][Sar]-OH; linker I:1-II:N via Glutaryl) | 10000 to 50000 ng·h/mL | 0.5 to 5 mL/min/kg | 5 to 10 h | > 0.1 L/kg | – | – | – | – | – | – | – | – | –
